Patent US6355690B1, “Remedy for CAG repeat expansion diseases” (Niigata University, priority 1998, dated 2002)

How the values were obtained:
Type in all cases: cell-based
[1] = tested on: COS7 cells transfected with pEGFP-Q82-19; experiment: Aggregate body formation in COS7 cells expressing truncated DRPLA protein with expanded polyglutamine stretch (GFP fusion)
Method: (§1) The COS7 cells were transfected with plasmid thus constructed. COS7 cells were seeded in Dulbecco's modified Eagle's medium (DMEM) containing 10% fetal calf serum the day before transfection at 3×10^4 per well of an 8-well chamber slide (Nunc Inc., Naperville, Ill.). The COS7 cells were transfected with 0.5 μg of plasmid DNA using the SuperFect transfection reagent (Qiagen, Hilden, Germany) according to the manufacturer's instructions.
(§2) To investigate whether the transglutaminase reaction is involved in the formation of aggregate bodies and the induction of apoptotic cell death, the inventors cultured COS7 cells in the presence of transglutaminase inhibitors (cystamine^28, monodansyl cadaverine (MDC)^29, and putrescine^30), after transfection. For tilis purpose, truncated DRPLA proteins were expressed as fusion proteins with green fluorescence protein (GFP), which allowed the highly sensitive observation of viable cells. The inserts of pEF-BOS-FQ82-19 and pEF-BOS-FQ19-19 were transferred into pEGFP containing the coding region for GFP. The resultant plasmid DNAs (pEGFP-FQ82-19 and pEGFP-FQ19-19) were transfected into COS7 cells. The plasmid DNA was constructed as below. The segment coding for 3 histidines, the polyglutamine stretch and 19 amino acids downstream of the polyglutamine stretch of DRPLA cDNA (pDRPLAE or pDRPLAN) was amplified by PCR using a primer (5′-GGGAATTCGGATGCACCAT-[…]-3′) containing an EcoRI linker sequence and a primer (5′-[…]-3′). PCR products were digested with EcoRI and BamHI, and subcloned into the pEGFP-N1 expression vector (Clontech, Palo Alto, Calif.). The nucleotide sequences of all the constructs were confirmed using automated DNA sequencers (PE Applied Biosystems, Foster City, Calif.).
The effects of other transglutaminase inhibitor (MDC) on the aggregate formation and apoptotic cell death were also investigated. The TUNEL assay was performed using an In Situ Cell Death Detection Kit (Boehringer Mannheim, Mannheim, Germany) according to the manufacturer's instructions. FITC-conjugated dUTP was used for the terminal deoxynucleotidyl transferase reaction. An assay for nuclear fragmentation was performed by staining cells with […] Hoechst 33342. Quantitation was performed by analyzing 100 cells expressing the FLAG epitope. Statistical analyses were performed using Student's t test.

[2] = tested on: COS7 cells transfected with pEGFP-Q82-19; experiment: Nuclear fragmentation (apoptotic cell death), Hoechst 33342 staining
Method: as §1, §2
The effects of other transglutaminase inhibitor (MDC) on the aggregate formation and apoptotic cell death were also investigated. The TUNEL assay was performed using an In Situ Cell Death Detection Kit (Boehringer Mannheim, Mannheim, Germany) according to the manufacturer's instructions. […] Quantitation was performed by analyzing 100 cells expressing the FLAG epitope. […]

[3] = tested on: COS7 cells transfected with pEGFP-Q19-19; experiment: Expression pattern of GFP fusion protein with polyglutamine stretch of normal length; conditions: 1 mM cystamine
Method: as §1
To investigate whether the transglutaminase reaction is involved in the formation of aggregate bodies and the induction of apoptotic cell death, the inventors cultured COS7 cells in the presence of transglutaminase inhibitors (cystamine^28, monodansyl cadaverine (MDC)^29, and putrescine^30), after transfection. For tilis purpose, truncated DRPLA proteins were expressed as fusion proteins with green fluorescence protein (GFP), which allowed the highly sensitive observation of viable cells. The inserts of pEF-BOS-FQ82-19 and pEF-BOS-FQ19-19 were transferred into pEGFP containing the coding region for GFP. The resultant plasmid DNAs (pEGFP-FQ82-19 and pEGFP-FQ19-19) were transfected into COS7 cells. The plasmid DNA was constructed as below. […]

[4] = even at 100 µM of cystamine, various concentrations

SMILES | sizes of the aggregate bodies (in words) ([1]; presence of MDC compared to absence of MDC) | frequencies of the cells with aggregate formation (in words) ([1]; various concentrations of MDC) | suppression of nuclear fragmentation (in words) ([2]; various concentrations of MDC) | frequency of cells retaining a diffuse cytoplasmic expression pattern without aggregate formation ([1]; 1 mM cystamine, 60 hours after transfection, 32% in absence of cystamine, P<0.01) | cells with formation of aggregate bodies ([1]; 1 mM cystamine, cultured for 60 hours, 42% without cystamine, P<0.01) | suppression of aggregate bodies (in words) [1, 4] | nuclear fragmentation ([2]; 1 mM cystamine, 60 hours, 38% without cystamine, P<0.05) | suppression of nuclear fragmentation (in words) [2, 4] | expression patterns of the fusion protein (in words) [3]
CN(C)c1cccc2c(S(=O)(=O)NCCCCCN)cccc12 [MDC, monodansyl cadaverine] | smaller | no significant changes | Strong suppression | – | – | – | – | – | –
NCCSSCCN [cystamine] | – | – | – | 56% | 33% | suppression effects appeared in a dose-dependent manner | 24% | suppression effects appeared in a dose-dependent manner | did not change
